Earlier results, collected in EP0665714B1, “GRANULAR WATER SOLUBLE OR HYGROSCOPIC AGRICULTURAL FORMULATIONS AND METHODS OF MAKING THEM” (BASF CORPORATION, priority 1992, dated 1994).

Conditions: in general

C[N+]1(C)CCCCC1.[Cl-] [mepiquat chloride, 1,1-dimethylpiperidinium chloride]
water solubility: more than 600 g/l
